Experimental data taken from patent publication US20260258032A1, “TYROSINE KINASE 2 INHIBITORS AND USES THEREOF” (BIOGEN MA INC., priority 2022, published 2026).
Structures can show the parent of a compound that is named as a salt.

Biological target: T1, JH2 domain of human Tyk2 (Homo sapiens, UniProt P29597)
T1 construct: 10×His-tagged TYK2 JH2 domain (amino acid 575-876)
Assay: JH2 biochemical assay (TR-FRET probe displacement)
Type: binding
Conditions: JH2 biochemical assay
Protocol: The inhibitory potency of compounds of the disclosure against the kinase activity of recombinantly generated JH2 domain of human Tyk2 was evaluated in a plate-based assay using a TR-FRET assay platform. Briefly, 2 nM of recombinant JH2 domain [10×His-tagged TYK2 JH2 domain (amino acid 575-876)] was combined with 2 nM probe ((S)-6-amino-9-(2-carboxy-4-((1-(3-(8-methyl-5-(methylamino)-8H-imidazo[4,5-d]thiazolo[5,4-b]pyridin-2-yl)phenyl)ethyl)carbamoyl)phenyl)-3-iminio-5-sulfo-3H-xanthene-4-sulfonate), 0.1 nM Tb-labeled anti-His antibody, and compounds of disclosure for 60 minutes. Compounds are tested at either […] top concentration, 10 points of 3-fold dilution. The TR-FRET signal […] by compounds and signal was calculated by taking the ratio of fluorescence at 520 nm and 495 nm. The data was normalized and the percent activity versus log concentration of compound was fitted with a 4-parameter logistic model to generate IC50 curves.

T1 sequence (P29597 575-876): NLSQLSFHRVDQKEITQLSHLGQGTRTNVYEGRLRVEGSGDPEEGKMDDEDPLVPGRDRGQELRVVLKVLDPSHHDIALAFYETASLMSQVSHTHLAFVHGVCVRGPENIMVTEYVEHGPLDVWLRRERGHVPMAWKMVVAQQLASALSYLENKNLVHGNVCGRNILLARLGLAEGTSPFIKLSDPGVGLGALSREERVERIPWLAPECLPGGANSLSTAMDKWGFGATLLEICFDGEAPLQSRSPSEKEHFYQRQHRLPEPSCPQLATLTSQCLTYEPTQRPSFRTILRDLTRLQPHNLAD

| SMILES | IC50 [nM] |
| --- | --- |
| CC(=O)Nc1cc2c(cn1)C1(CC1)CN2c1cc(O[C@@H]2COC[C@H]2F)nc(C(C)(F)F)n1 (racemic) [Example 150, Trans-rac-N-(1′-(2-(1,1-difluoroethyl)-6-(((3RS,4R)-4-fluorotetrahydrofuran-3-yl)oxy)pyrimidin-4-yl)-1′,2′-dihydrospiro[cyclopropane-1,3′-pyrrolo[3,2-c]pyridin]-6′-yl)acetamide trifluoroacetate] | 10 to 100 |
| CC(=O)Nc1cc2c(cn1)C1(CC1)CN2c1ccnc(C2COC2)n1 [Example 3, N-(1′-(2-(oxetan-3-yl)pyrimidin-4-yl)-1′,2′-dihydrospiro[cyclopropane-1,3′-pyrrolo[3,2-c]pyridin]-6′-yl)acetamide] | 10 to 100 |
| CC(=O)Nc1cc2c(cn1)C1(CC1)CN2c1cc(NC(C)=O)nc(C(C)(F)F)n1 [Example 15, N-(1′-(6-acetamido-2-(1,1-difluoroethyl)pyrimidin-4-yl)-1′,2′-dihydrospiro[cyclopropane-1,3′-pyrrolo[3,2-c]pyridin]-6′-yl)acetamide] | ≤ 10 |
| CC(=O)Nc1cc2c(cn1)C1(CC1)CN2c1cc(C)ncn1 [Example 27, N-(1′-(6-methylpyrimidin-4-yl)-1′,2′-dihydrospiro[cyclopropane-1,3′-pyrrolo[3,2-c]pyridin]-6′-yl)acetamide] | 10 to 100 |
| CC(=O)Nc1cc2c(cn1)C1(CC1)CN2c1cc(C)nc2cc(C)nn12 [Example 28, N-(1′-(2,5-dimethylpyrazolo[1,5-a]pyrimidin-7-yl)-1′,2′-dihydrospiro[cyclopropane-1,3′-pyrrolo[3,2-c]pyridin]-6′-yl)acetamide] | ≥ 1000 |
| CC(=O)Nc1cc2c(cn1)CCN2c1ccnc(C(C)(F)F)n1 [Example 30, N-(1-(2-(1,1-difluoroethyl)pyrimidin-4-yl)-2,3-dihydro-1H-pyrrolo[3,2-c]pyridin-6-yl)acetamide] | 100 to 1000 |
| CC(=O)Nc1cc2c(cn1)CCN2c1cccc(C2CCOC2)n1 (stereo not drawn) [Example 33, N-(1-(6-(tetrahydrofuran-3-yl)pyridin-2-yl)-2,3-dihydro-1H-pyrrolo[3,2-c]pyridin-6-yl)acetamide] | 10 to 100 |
| CC(=O)Nc1cc2c(cn1)C1(CC1C)CN2c1nccc(C(C)(F)F)n1 (stereo not drawn) [Example 36, N-(1′-(4-(1,1-difluoroethyl)pyrimidin-2-yl)-2-methyl-1′,2′-dihydrospiro[cyclopropane-1,3′-pyrrolo[3,2-c]pyridin]-6′-yl)acetamide] | 10 to 100 |
| CC(=O)Nc1cc2c(cn1)C1(CCC1)CN2c1nccc(C(C)(F)F)n1 [Example 40, N-(1′-(4-(1,1-difluoroethyl)pyrimidin-2-yl)-1′,2′-dihydrospiro[cyclobutane-1,3′-pyrrolo[3,2-c]pyridin]-6′-yl)acetamide] | 10 to 100 |
| CC(=O)Nc1cc2c(cn1)C1(CCCC1)CN2c1nccc(C(C)(F)F)n1 [Example 43, N-(1′-(4-(1,1-difluoroethyl)pyrimidin-2-yl)-1′,2′-dihydrospiro[cyclopentane-1,3′-pyrrolo[3,2-c]pyridin]-6′-yl)acetamide] | 100 to 1000 |
| CC(=O)Nc1cc2c(cn1)C1(CCCC1)CN2c1ccnc(C(C)(F)F)n1 [Example 44, N-(1′-(2-(1,1-difluoroethyl)pyrimidin-4-yl)-1′,2′-dihydrospiro[cyclopentane-1,3′-pyrrolo[3,2-c]pyridin]-6′-yl)acetamide] | 100 to 1000 |
| CC(=O)Nc1cc2c(cn1)C1(CCCC1)CN2c1cccc(C(C)(F)F)n1 [Example 45, N-(1′-(6-(1,1-difluoroethyl)pyridin-2-yl)-1′,2′-dihydrospiro[cyclopentane-1,3′-pyrrolo[3,2-c]pyridin]-6′-yl)acetamide] | 100 to 1000 |
| CC(=O)Nc1cc2c(cn1)C1(CCOCC1)CN2c1nccc(C(C)(F)F)n1 [Example 46, N-(1′-(4-(1,1-difluoroethyl)pyrimidin-2-yl)-1′,2,2′,3,5,6-hexahydrospiro[pyran-4,3′-pyrrolo[3,2-c]pyridin]-6′-yl)acetamide] | ≥ 1000 |
| CC(=O)Nc1cc2c(cn1)C1(CCOCC1)CN2c1ccnc(C(C)(F)F)n1 [Example 47, N-(1′-(2-(1,1-difluoroethyl)pyrimidin-4-yl)-1′,2,2′,3,5,6-hexahydrospiro[pyran-4,3′-pyrrolo[3,2-c]pyridin]-6′-yl)acetamide] | ≥ 1000 |
| CC(=O)Nc1cc2c(cn1)C1(CCOCC1)CN2c1cccc(C(C)(F)F)n1 [Example 48, N-(1′-(6-(1,1-difluoroethyl)pyridin-2-yl)-1′,2,2′,3,5,6-hexahydrospiro[pyran-4,3′-pyrrolo[3,2-c]pyridin]-6′-yl)acetamide] | 100 to 1000 |
| CC(=O)Nc1cc2c(cn1)C1(CC1)CN2c1cc(C)nc(C)n1 [Example 68, N-(1′-(2,6-dimethylpyrimidin-4-yl)-1′,2′-dihydrospiro[cyclopropane-1,3′-pyrrolo[3,2-c]pyridin]-6′-yl)acetamide] | 10 to 100 |
| CC(=O)Nc1cc2c(cn1)C1(CC1)CN2c1nccs1 [Example 77, N-(1′-(thiazol-2-yl)-1′,2′-dihydrospiro[cyclopropane-1,3′-pyrrolo[3,2-c]pyridin]-6′-yl)acetamide trifluoroacetate] | 100 to 1000 |
| CC(=O)Nc1cc2c(cn1)C1(CC1)CN2c1ncc(C)s1 [Example 78, N-(1′-(5-methylthiazol-2-yl)-1′,2′-dihydrospiro[cyclopropane-1,3′-pyrrolo[3,2-c]pyridin]-6′-yl)acetamide trifluoroacetate] | 10 to 100 |
| CC(=O)Nc1cc2c(cn1)C1(CC1)CN2c1cc(C)nc(C2CC3CCC2O3)n1 (stereo not drawn) [Example 102, N-(1′-(2-(7-oxabicyclo[2.2.1]heptan-2-yl)-6-methylpyrimidin-4-yl)-1′,2′-dihydrospiro[cyclopropane-1,3′-pyrrolo[3,2-c]pyridin]-6′-yl)acetamide trifluoroacetate] | 10 to 100 |
| CC(=O)Nc1cc2c(cn1)C1(CC1)CN2c1cc(C)nc(C2CCCN(C)C2)n1 (stereo not drawn) [Example 117, N-(1′-(6-methyl-2-(1-methylpiperidin-3-yl)pyrimidin-4-yl)-1′,2′-dihydrospiro[cyclopropane-1,3′-pyrrolo[3,2-c]pyridin]-6′-yl)acetamide] | ≥ 1000 |
| CC(=O)Nc1cc2c(cn1)C1(CC1)CN2c1cc(C)nc(C2CCCCN2C)n1 (stereo not drawn) [Example 118, N-(1′-(6-methyl-2-(1-methylpiperidin-2-yl)pyrimidin-4-yl)-1′,2′-dihydrospiro[cyclopropane-1,3′-pyrrolo[3,2-c]pyridin]-6′-yl)acetamide] | ≥ 1000 |
| CC(=O)Nc1cc2c(cn1)C1(CC1)CN2c1cc(C)nc(C2CCN(C(C)C)CC2)n1 [Example 121, N-(1′-(2-(1-isopropylpiperidin-4-yl)-6-methylpyrimidin-4-yl)-1′,2′-dihydrospiro[cyclopropane-1,3′-pyrrolo[3,2-c]pyridin]-6′-yl)acetamide] | ≥ 1000 |
| COC(C)c1nccc(N2CC3(CC3)c3cnc(NC(C)=O)cc32)n1 (stereo not drawn) [Example 131, N-(1′-(2-(1-methoxyethyl)pyrimidin-4-yl)-1′,2′-dihydrospiro[cyclopropane-1,3′-pyrrolo[3,2-c]pyridin]-6′-yl)acetamide] | 10 to 100 |
| COC(C)(C)c1nccc(N2CC3(CC3)c3cnc(NC(C)=O)cc32)n1 [Example 132, N-(1′-(2-(2-methoxypropan-2-yl)pyrimidin-4-yl)-1′,2′-dihydrospiro[cyclopropane-1,3′-pyrrolo[3,2-c]pyridin]-6′-yl)acetamide] | 10 to 100 |
| CC(=O)Nc1cc2c(cn1)C1(CC1)CN2c1cc(C)[nH]c(=O)n1 [Example 134, N-(1′-(6-methyl-2-oxo-1,2-dihydropyrimidin-4-yl)-1′,2′-dihydrospiro[cyclopropane-1,3′-pyrrolo[3,2-c]pyridin]-6′-yl)acetamide] | ≥ 1000 |
| CC(=O)Nc1cc2c(cn1)C1(CC1)CN2c1nc(C)cc(=O)[nH]1 [Example 135, N-(1′-(4-methyl-6-oxo-1,6-dihydropyrimidin-2-yl)-1′,2′-dihydrospiro[cyclopropane-1,3′-pyrrolo[3,2-c]pyridin]-6′-yl)acetamide] | ≥ 1000 |
| CCN1CC(Oc2cc(N3CC4(CC4)c4cnc(NC(C)=O)cc43)nc(C(C)(F)F)n2)C1 [Example 148, N-(1′-(2-(1,1-difluoroethyl)-6-((1-ethylazetidin-3-yl)oxy)pyrimidin-4-yl)-1′,2′-dihydrospiro[cyclopropane-1,3′-pyrrolo[3,2-c]pyridin]-6′-yl)acetamide trifluoroacetate] | ≥ 1000 |
| CC(=O)Nc1cc2c(cn1)C1(CC1)CN2c1cc(C)nc(N2CC(C#N)(CF)C2)n1 [Example 218, N-(1′-(2-(3-cyano-3-(fluoromethyl)azetidin-1-yl)-6-methylpyrimidin-4-yl)-1′,2′-dihydrospiro[cyclopropane-1,3′-pyrrolo[3,2-c]pyridin]-6′-yl)acetamide] | ≤ 10 |
| COC1CCCN(c2nc(C)cc(N3CC4(CC4)c4cnc(NC(C)=O)cc43)n2)C1 (stereo not drawn) [Example 230, N-(1′-(2-(3-methoxypiperidin-1-yl)-6-methylpyrimidin-4-yl)-1′,2′-dihydrospiro[cyclopropane-1,3′-pyrrolo[3,2-c]pyridin]-6′-yl)acetamide] | 100 to 1000 |
| CC(=O)Nc1cc2c(cn1)C1(CC1)CN2c1cc(C)cc(-c2cn(C)nc2C(F)(F)F)n1 [Example 261, N-(1′-(4-methyl-6-(1-methyl-3-(trifluoromethyl)-1H-pyrazol-4-yl)pyridin-2-yl)-1′,2′-dihydrospiro[cyclopropane-1,3′-pyrrolo[3,2-c]pyridin]-6′-yl)acetamide trifluoroacetate] | ≥ 1000 |
